The source of these data is ChEMBL document CHEMBL1153282, “N-substituted 2'-(aminoaryl)benzothiazoles as kinase inhibitors: hit identification and scaffold hopping” (Bioorg Med Chem Lett, 2009).

Assay [1] concerns the target Vascular endothelial growth factor receptor 2 (Homo sapiens, UniProt P35968). Briefly: Inhibition of VEGFR2 by virtual HTS assay.
A further assay addresses Insulin receptor (Homo sapiens, UniProt P06213). Put plainly: Inhibition of insulin receptor by virtual HTS assay.
Assay [2] concerns the target Platelet-derived growth factor receptor beta (Homo sapiens, UniProt P09619). Put plainly: Inhibition of PDGFRbeta by virtual HTS assay.
In the next assay the target is Aurora kinase B (Homo sapiens, UniProt Q96GD4). Briefly: Inhibition of Aurora B by virtual HTS assay.
Sequence of Aurora kinase B (Q96GD4 whole entry): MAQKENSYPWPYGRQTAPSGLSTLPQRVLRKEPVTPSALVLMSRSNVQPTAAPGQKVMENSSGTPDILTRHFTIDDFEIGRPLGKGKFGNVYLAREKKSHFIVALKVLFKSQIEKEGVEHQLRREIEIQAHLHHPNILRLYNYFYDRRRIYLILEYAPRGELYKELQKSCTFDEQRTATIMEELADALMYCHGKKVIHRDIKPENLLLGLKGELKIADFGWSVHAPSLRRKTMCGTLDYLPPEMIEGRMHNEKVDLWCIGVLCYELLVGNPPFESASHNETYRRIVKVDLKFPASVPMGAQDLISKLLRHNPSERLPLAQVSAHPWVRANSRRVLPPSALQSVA
The target of assay [3] is Vascular endothelial growth factor receptor 3 (Homo sapiens, UniProt P35916).
Description: Inhibition of VEGFR3 by virtual HTS assay
The target of a further assay is T1, Aurora kinase A (Homo sapiens, UniProt O14965).
T1 sequence (O14965 whole entry): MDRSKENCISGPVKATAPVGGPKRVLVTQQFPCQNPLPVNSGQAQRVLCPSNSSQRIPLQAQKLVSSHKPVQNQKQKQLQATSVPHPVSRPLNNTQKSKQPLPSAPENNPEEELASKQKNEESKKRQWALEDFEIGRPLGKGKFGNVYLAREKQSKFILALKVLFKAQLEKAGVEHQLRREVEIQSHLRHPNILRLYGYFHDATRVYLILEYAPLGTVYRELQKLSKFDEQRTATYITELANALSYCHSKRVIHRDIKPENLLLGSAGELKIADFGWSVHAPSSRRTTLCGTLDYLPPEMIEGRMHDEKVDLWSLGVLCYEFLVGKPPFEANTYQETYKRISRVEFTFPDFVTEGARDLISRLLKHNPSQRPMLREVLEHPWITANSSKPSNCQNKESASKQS
Put plainly: Inhibition of Aurora A by virtual HTS assay.

In the next assay the target is Angiopoietin-1 receptor (Homo sapiens, UniProt Q02763). Put plainly: Inhibition of TIE2 by virtual HTS assay.
Sequence of Angiopoietin-1 receptor (Q02763 whole entry): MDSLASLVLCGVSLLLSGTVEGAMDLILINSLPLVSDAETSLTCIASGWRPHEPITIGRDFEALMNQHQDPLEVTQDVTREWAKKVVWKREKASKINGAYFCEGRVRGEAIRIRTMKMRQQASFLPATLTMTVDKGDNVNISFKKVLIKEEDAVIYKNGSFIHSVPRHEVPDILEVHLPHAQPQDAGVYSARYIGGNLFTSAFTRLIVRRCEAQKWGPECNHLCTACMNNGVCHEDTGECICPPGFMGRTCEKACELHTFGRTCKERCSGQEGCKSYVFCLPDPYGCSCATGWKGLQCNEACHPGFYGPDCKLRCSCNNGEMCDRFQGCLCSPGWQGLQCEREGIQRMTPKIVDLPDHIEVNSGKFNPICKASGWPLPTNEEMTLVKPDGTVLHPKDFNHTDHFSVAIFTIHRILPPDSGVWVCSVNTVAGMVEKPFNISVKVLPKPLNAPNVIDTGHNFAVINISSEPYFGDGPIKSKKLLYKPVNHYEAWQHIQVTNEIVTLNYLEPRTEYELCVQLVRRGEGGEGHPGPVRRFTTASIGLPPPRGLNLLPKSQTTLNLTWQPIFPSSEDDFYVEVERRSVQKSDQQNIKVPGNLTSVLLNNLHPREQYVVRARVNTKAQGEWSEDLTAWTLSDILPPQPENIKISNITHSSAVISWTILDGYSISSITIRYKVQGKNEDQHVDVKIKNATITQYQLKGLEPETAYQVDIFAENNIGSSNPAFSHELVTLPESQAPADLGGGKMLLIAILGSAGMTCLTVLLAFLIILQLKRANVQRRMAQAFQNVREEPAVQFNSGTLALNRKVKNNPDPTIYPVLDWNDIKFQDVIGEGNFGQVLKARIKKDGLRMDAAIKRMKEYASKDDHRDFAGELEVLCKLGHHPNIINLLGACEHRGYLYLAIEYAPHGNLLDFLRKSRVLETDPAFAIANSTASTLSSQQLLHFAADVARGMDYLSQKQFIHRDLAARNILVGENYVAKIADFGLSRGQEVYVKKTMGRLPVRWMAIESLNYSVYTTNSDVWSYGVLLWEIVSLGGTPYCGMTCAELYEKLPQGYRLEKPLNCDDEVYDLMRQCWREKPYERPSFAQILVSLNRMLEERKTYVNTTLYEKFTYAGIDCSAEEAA
Another assay concerns the target T2, Ephrin type-B receptor 4 (Homo sapiens, UniProt P54760).
T2 sequence (P54760 whole entry): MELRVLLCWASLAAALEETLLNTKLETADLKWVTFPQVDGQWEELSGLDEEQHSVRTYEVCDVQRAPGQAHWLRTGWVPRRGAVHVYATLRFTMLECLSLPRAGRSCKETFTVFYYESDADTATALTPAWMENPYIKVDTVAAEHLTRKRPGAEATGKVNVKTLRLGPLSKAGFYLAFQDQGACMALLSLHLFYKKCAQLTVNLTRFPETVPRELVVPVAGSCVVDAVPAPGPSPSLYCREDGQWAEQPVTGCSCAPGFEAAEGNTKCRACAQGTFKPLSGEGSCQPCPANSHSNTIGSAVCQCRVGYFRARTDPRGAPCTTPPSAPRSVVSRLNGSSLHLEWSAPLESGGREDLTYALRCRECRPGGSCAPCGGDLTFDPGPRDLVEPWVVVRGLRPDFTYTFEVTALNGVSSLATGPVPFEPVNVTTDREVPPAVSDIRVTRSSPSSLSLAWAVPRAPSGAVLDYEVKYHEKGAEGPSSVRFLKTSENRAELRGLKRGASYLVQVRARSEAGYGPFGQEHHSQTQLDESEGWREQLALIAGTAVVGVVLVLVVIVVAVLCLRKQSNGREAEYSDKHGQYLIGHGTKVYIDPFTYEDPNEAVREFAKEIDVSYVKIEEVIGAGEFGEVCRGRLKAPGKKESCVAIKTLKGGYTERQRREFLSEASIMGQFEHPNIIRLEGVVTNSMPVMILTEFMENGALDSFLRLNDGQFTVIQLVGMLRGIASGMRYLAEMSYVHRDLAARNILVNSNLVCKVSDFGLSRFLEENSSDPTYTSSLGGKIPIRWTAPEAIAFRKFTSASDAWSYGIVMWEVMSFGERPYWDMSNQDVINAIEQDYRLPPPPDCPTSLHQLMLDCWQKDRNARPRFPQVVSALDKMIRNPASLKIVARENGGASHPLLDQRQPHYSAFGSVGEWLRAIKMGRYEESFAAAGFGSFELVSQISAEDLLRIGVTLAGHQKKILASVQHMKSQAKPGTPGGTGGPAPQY
Briefly: Inhibition of EphB4 by virtual HTS assay.

Assay [4] concerns the target Epidermal growth factor receptor (Homo sapiens, UniProt P00533). Briefly: Inhibition of EGFR by virtual HTS assay.
The target in assay [5] is Proto-oncogene tyrosine-protein kinase Src (Homo sapiens, UniProt P12931). Briefly: Inhibition of Src by virtual HTS assay.
Sequence of Proto-oncogene tyrosine-protein kinase Src (P12931 2-536 limits assumed): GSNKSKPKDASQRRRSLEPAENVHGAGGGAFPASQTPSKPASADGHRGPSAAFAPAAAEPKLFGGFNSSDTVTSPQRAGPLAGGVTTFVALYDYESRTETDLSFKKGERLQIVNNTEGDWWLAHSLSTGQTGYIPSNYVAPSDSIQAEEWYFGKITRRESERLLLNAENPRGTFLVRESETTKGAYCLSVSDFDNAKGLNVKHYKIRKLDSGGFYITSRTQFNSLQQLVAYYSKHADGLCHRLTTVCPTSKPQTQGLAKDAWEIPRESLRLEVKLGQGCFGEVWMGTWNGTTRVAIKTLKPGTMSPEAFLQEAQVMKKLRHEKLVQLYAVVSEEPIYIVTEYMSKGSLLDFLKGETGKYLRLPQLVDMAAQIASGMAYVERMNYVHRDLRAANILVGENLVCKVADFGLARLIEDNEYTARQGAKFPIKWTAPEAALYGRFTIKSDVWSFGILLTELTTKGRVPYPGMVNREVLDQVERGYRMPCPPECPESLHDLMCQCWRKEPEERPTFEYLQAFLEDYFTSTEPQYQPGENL
Assay [6] has as its target Insulin-like growth factor 1 receptor (Homo sapiens, UniProt P08069). Briefly: Inhibition of IGF1R by virtual HTS assay.
For the next assay, the target named is Focal adhesion kinase 1 (Homo sapiens, UniProt Q05397). Put plainly: Inhibition of FAK by virtual HTS assay.
The target in assay [7] is Cyclin-dependent kinase 2 (Homo sapiens, UniProt P24941). Put plainly: Inhibition of CDK2 by virtual HTS assay.
Assay [8] deals with Cyclin-dependent kinase 4 (Homo sapiens, UniProt P11802). Put plainly: Inhibition of CDK4 by virtual HTS assay.
Sequence of Cyclin-dependent kinase 4 (P11802 whole entry): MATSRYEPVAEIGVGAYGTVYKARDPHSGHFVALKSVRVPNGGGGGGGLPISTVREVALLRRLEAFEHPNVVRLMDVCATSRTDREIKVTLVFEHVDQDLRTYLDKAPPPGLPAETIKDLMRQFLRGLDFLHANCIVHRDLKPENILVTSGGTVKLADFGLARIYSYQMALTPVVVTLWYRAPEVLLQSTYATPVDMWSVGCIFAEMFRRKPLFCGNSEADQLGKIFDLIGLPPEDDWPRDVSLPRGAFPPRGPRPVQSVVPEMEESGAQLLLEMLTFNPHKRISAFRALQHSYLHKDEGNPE

Some results are limits rather than exact numbers.

Sequence of Platelet-derived growth factor receptor beta (P09619 whole entry): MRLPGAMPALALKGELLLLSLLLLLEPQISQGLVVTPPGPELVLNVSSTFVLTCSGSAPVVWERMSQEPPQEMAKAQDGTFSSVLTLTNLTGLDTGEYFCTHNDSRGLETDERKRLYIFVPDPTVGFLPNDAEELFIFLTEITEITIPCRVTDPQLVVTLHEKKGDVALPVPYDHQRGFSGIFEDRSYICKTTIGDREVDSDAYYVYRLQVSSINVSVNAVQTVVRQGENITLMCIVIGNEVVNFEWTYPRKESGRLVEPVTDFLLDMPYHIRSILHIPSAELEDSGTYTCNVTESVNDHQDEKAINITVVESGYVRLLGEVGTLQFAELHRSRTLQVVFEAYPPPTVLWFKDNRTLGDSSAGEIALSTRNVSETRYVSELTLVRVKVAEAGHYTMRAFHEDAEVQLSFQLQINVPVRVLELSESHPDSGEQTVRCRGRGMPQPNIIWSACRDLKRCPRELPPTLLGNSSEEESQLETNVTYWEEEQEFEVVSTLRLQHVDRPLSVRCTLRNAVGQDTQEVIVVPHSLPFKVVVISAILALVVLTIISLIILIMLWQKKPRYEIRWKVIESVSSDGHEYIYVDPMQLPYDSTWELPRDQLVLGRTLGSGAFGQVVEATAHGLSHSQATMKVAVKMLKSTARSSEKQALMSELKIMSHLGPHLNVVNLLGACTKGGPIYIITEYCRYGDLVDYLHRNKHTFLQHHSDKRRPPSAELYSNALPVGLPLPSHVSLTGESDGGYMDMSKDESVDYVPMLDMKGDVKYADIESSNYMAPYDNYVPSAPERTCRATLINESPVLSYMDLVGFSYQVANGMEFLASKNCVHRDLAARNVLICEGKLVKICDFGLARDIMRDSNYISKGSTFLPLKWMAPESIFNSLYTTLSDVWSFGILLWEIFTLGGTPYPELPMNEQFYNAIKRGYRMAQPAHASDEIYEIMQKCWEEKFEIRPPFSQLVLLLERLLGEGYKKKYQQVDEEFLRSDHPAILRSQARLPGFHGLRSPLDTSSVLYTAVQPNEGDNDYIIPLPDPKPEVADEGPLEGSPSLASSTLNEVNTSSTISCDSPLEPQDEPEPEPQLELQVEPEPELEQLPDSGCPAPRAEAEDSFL
Sequence of Insulin-like growth factor 1 receptor (P08069 31-736 limits assumed): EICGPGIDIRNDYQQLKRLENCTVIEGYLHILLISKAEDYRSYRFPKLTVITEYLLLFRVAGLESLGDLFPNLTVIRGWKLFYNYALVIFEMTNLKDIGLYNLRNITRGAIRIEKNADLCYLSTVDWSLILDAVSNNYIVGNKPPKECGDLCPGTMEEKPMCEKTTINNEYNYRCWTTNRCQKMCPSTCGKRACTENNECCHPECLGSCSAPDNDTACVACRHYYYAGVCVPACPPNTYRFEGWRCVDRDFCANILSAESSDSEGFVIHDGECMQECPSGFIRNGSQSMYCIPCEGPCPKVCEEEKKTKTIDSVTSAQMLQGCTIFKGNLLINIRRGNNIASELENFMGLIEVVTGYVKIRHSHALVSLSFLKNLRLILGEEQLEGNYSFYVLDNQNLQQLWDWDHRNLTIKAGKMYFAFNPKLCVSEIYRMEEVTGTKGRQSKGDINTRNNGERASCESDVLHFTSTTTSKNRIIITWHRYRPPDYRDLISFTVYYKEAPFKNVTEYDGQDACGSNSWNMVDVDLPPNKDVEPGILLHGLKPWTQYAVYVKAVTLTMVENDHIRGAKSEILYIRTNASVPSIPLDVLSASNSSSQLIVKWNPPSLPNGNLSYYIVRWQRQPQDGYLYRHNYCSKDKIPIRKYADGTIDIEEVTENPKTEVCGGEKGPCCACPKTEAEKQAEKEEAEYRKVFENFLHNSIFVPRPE
Sequence of Insulin-like growth factor 1 receptor (P08069 741-1367 limits assumed): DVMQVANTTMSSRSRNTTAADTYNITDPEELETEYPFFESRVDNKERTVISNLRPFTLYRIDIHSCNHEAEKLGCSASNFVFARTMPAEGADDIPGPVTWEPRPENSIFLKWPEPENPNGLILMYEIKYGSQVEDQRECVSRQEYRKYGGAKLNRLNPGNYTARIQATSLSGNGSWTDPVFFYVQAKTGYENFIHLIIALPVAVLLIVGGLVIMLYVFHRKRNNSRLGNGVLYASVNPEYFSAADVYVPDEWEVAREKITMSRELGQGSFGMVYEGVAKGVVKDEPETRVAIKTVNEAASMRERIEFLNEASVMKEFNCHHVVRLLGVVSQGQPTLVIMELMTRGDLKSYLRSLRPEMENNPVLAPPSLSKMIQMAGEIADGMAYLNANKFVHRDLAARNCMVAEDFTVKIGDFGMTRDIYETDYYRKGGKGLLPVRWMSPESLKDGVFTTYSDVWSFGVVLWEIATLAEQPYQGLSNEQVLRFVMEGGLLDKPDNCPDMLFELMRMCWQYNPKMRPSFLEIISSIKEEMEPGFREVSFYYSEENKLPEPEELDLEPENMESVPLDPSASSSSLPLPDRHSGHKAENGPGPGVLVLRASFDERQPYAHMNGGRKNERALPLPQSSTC

Turning to `COc1cc2ncnc(Nc3ccc(F)c(Cl)c3)c2cc1OC`, the IC50 in assay [1] stood at 0.51 µM; against Insulin receptor, 2600 nM; in assay [2], 3 µM; against Aurora kinase B, 7.4 µM; in assay [3], 2400 nM; against Aurora kinase A it was 6.5 µM. Besides, the IC50 is 8.3 µM on Angiopoietin-1 receptor and 480 nM against Ephrin type-B receptor 4.
For `c1cc(Nc2ncnc3nc[nH]c23)cc(-c2nc3ccccc3s2)c1`, the IC50 in assay [4] is 1700 nM; in assay [1], 0.87 µM; against Insulin receptor, greater than 10000 nM; against Aurora kinase B, greater than 10 µM; on Aurora kinase A, greater than 10 µM; in assay [5], 1100 nM. Besides, the results for the IC50 (in assay [6]; against Ephrin type-B receptor 4) were 1200 nM and 840 nM, respectively.
In the case of `O=C(NC(=S)Nc1ccc(O)c(-c2nc3ccccc3s2)c1)c1ccc([N+](=O)[O-])cc1`, the IC50 in assay [4] is 280 nM; in [1], 3 µM; in assay [2], 1 µM; on Focal adhesion kinase 1, 900 nM; in [3], 1000 nM; in assay [5] it was 190 nM. Besides, the IC50 was 310 nM in [6], 700 nM in assay [7], 3 µM at Angiopoietin-1 receptor and 610 nM against Ephrin type-B receptor 4.
For the compound `COc1cc2ncnc(Nc3ccc(-c4nc5ccccc5s4)c(O)c3)c2cc1OC`, the IC50 in [4] is 2200 nM; in assay [1], 6.9 µM; against Insulin receptor, greater than 10000 nM; at Aurora kinase B it was 4.2 µM; against Aurora kinase A, greater than 10 µM; in [5] it was greater than 10000 nM. Further, the IC50 (in assay [6]; against Ephrin type-B receptor 4) was greater than 10000 nM throughout.
Consider `Cc1cc2c(Nc3ccc(-c4nc5ccccc5s4)cc3)ncnc2cc1Cl`, for which the concentration for half-maximal inhibition (IC50) was greater than 10000 nM in assay [4]; 1 µM in assay [1]; greater than 10000 nM against Insulin receptor; greater than 10 µM against Aurora kinase B; 2.7 µM on Aurora kinase A; 300 nM in [5]. For the same compound, the figures for the IC50 (in assay [6]; against Angiopoietin-1 receptor; against Ephrin type-B receptor 4) were 3300 nM, greater than 10 µM and greater than 10000 nM, respectively.
`COc1cc2ncnc(Nc3ccc(-c4nc5ccccc5s4)cc3)c2cc1OC`: the IC50 in [4] is 1500 nM; in assay [1] it was 6.8 µM; on Insulin receptor it was greater than 10000 nM; on Aurora kinase B, 0.135 µM; at Aurora kinase A, 0.35 µM; in [5], greater than 10000 nM. Besides, the concentration for half-maximal inhibition (IC50) (in assay [6]; at Ephrin type-B receptor 4) was greater than 10000 nM throughout.
Regarding `Fc1cc(-c2nc3ccccc3s2)ccc1Nc1ncnc2cc(Cl)ccc12`, the half-maximal inhibitory concentration (IC50) in assay [4] is greater than 10000 nM; in assay [1], 0.8 µM; against Insulin receptor it was greater than 10000 nM; against Aurora kinase B, 0.51 µM; on Aurora kinase A, greater than 10 µM; in assay [5], 700 nM. Moreover, the values for the 50% inhibitory concentration (IC50) (in assay [6]; on Angiopoietin-1 receptor; against Ephrin type-B receptor 4) were 1100 nM, 1 µM and 1000 nM, respectively.
Take `COc1cc2nc(Nc3cc(C)n[nH]3)nc(Nc3ccc(-c4nc5ccccc5s4)cc3)c2cc1OC`: the IC50 in assay [4] was greater than 10000 nM; in assay [1], greater than 10 µM; on Insulin receptor, 2150 nM; at Aurora kinase B, greater than 10 µM; at Aurora kinase A, 6 µM; in [5], 3000 nM. The half-maximal inhibitory concentration (IC50) in [6] was 1650 nM; against Angiopoietin-1 receptor, greater than 10 µM; at Ephrin type-B receptor 4 it was 3300 nM.
Turning to `Clc1ccc2c(Nc3ccc(-c4nc5ccccc5s4)cc3)ccnc2c1`, the half-inhibitory concentration (IC50) is 5300 nM in [4]; 0.64 µM in assay [1]; 2700 nM against Insulin receptor; 0.75 µM against Aurora kinase B; 5.7 µM against Aurora kinase A; 630 nM in assay [5]. For the same compound, the half-inhibitory concentration (IC50) in assay [6] amounted to 860 nM; against Angiopoietin-1 receptor, 7 µM; against Ephrin type-B receptor 4, 1400 nM.
As to `COc1cc(Nc2ccnc3cc(Cl)ccc23)ccc1-c1nc2ccccc2s1`, the concentration for half-maximal inhibition (IC50) in [4] was greater than 10000 nM; in assay [1], greater than 10 µM; against Insulin receptor it was greater than 10000 nM; on Aurora kinase B, greater than 10 µM; on Aurora kinase A, greater than 10 µM; in assay [5] it was greater than 10000 nM. Also, the IC50 in [6] was greater than 10000 nM; against Angiopoietin-1 receptor, greater than 10 µM; against Ephrin type-B receptor 4, greater than 10000 nM.
`c1cc(Nc2ncnc3[nH]ccc23)cc(-c2nc3ccccc3s2)c1`: the 50% inhibitory concentration (IC50) in assay [1] is greater than 10 µM; against Aurora kinase B, 6.4 µM; on Aurora kinase A, greater than 10 µM; in [5] it was greater than 10000 nM; in assay [6] it was greater than 10000 nM; at Angiopoietin-1 receptor, 1.2 µM. In addition, the half-inhibitory concentration (IC50) against Ephrin type-B receptor 4 is greater than 10000 nM.
Regarding `COc1cc2ncnc(Nc3ccc(N4Cc5ccccc5C4)cc3)c2cc1OC`, the half-inhibitory concentration (IC50) in [4] was 1600 nM; against Insulin receptor, 7900 nM; in assay [8], 6.6 µM; at Aurora kinase B it was 0.92 µM; against Aurora kinase A it was 5.3 µM; in [6], 7500 nM.
Take `Cc1cc(Nc2ccnc(Nc3cccc(-c4nc5ccccc5s4)c3)n2)n[nH]1`: the IC50 in [4] was 1900 nM; in [1] it was 7.5 µM; against Insulin receptor, 1600 nM; in assay [2], greater than 10 µM; against Aurora kinase B it was 2 µM; in assay [3], 2500 nM. In addition, the IC50 on Aurora kinase A was 0.16 µM; in assay [5], 190 nM; in assay [6], 100 nM; at Angiopoietin-1 receptor, greater than 10 µM; against Ephrin type-B receptor 4, greater than 10000 nM.
Take `CNc1nc(Nc2ccc(-c3nc4ccccc4s3)cc2)c2cc(OC)c(OC)cc2n1`: the IC50 in assay [4] is greater than 10000 nM; in assay [1], greater than 10 µM; against Insulin receptor, 630 nM; against Aurora kinase B, greater than 10 µM; at Aurora kinase A, greater than 10 µM; in assay [5], greater than 10000 nM. The IC50 in [6] is greater than 10000 nM; at Angiopoietin-1 receptor it was greater than 10 µM; against Ephrin type-B receptor 4, greater than 10000 nM.
As for `COc1cc2ncnc(Nc3ccc(-c4nc5ccccc5s4)cc3C)c2cc1OC`, the 50% inhibitory concentration (IC50) in assay [1] was 3.4 µM; on Insulin receptor, greater than 10000 nM; against Aurora kinase B, 3.7 µM; at Aurora kinase A it was 4.4 µM; in [5] it was greater than 10000 nM; in assay [6], greater than 10000 nM. Moreover, the IC50 against Angiopoietin-1 receptor was 0.84 µM; against Ephrin type-B receptor 4, greater than 10000 nM.
